Where “and” joins values, the source holds several entries; their conditions need not be identical. Identical values can stand only once. Like-named read-outs stand apart in the source and are kept apart here.
Tests used:
[1] = test system: Plasmodium falciparum Dd2 asexual blood stage parasites; assay: microbe, parasite or virus in culture; set-up: species or system Plasmodium falciparum Dd2 in human erythrocytes; single determination (one 11-point concentration-response curve); conditions: Plasmodium falciparum, DD2, Erythrocyte, 72 h; read-out: AC50
[2] = test system: HepG2-A16-CD81EGFP cells; conditions: for HepG2 1uM growth rep1 / HepG2 1uM growth rep2: HepG2, 1 µM compound treatment (10 mM stocks); for HepG2 1uM growth rep1 / HepG2 3uM growth rep1: replicate 1, normalized; for HepG2 1uM growth rep1 / HepG2 1uM growth rep2 / HepG2 3uM growth rep1 / HepG2 3uM growth rep2: average of 2 wells; for HepG2 1uM growth rep2 / HepG2 3uM growth rep2: replicate 2, normalized; for HepG2 3uM growth rep1 / HepG2 3uM growth rep2: HepG2, 3 µM compound treatment (10 mM stocks); for Average HepG2 3 µM response( %): averaged response (percent)
[3] = test system: P. berghei-ANKA-GFP-LucCON liver stage parasites in HepG2-A16-CD81EGFP cells; assay: P. berghei liver stage Pb-Luc assay, Method 1 (UCSD, 1536-well); format: cell-based, Plasmodium berghei; conditions: for activity at 1 µM / activity at 3 µM: Plasmodium berghei, 48 h; for activity at 1 µM / activity at 3 µM / PbLuc 1uM growth rep1 / PbLuc 1uM growth rep2 / PbLuc 3uM growth rep1 / PbLuc 3uM growth rep2: average of 2 wells on a 1536 well plate; for Average P. berghei 3 µM response( %) / Average P. berghei 1 µM response (%): averaged response (percent); for Average P. berghei 1 µM response (%): the header list (r8) defines it as the 1 µM dose
[4] = in vitro; conditions: human, HepG2-A16-CD81EGFP cells, uninfected
[5] = P. berghei liver stage, 1 µM compound treatment (10 mM stocks), replicate 1, normalized, read-out: PbLuc 1uM growth rep1
[6] = P. berghei liver stage, 1 µM compound treatment (10 mM stocks), replicate 2, normalized, read-out: PbLuc 1uM growth rep2
[7] = P. berghei liver stage, 3 µM compound treatment (10 mM stocks), replicate 1, normalized, read-out: PbLuc 3uM growth rep1
[8] = P. berghei liver stage, 3 µM compound treatment (10 mM stocks), replicate 2, normalized, read-out: PbLuc 3uM growth rep2
[9] = P. berghei liver stage, 1 µM compound treatment (10 mM stocks), replicate 1, normalized
[10] = P. berghei liver stage, 1 µM compound treatment (10 mM stocks), replicate 2, normalized
[11] = P. berghei liver stage, 3 µM compound treatment (10 mM stocks), replicate 1, normalized
[12] = P. berghei liver stage, 3 µM compound treatment (10 mM stocks), replicate 2, normalized
[13] = 1 uM (compounds provided at 10 mM), column 11, read-out: Pb-Luc (P. berghei liver stage), % of control, lower concentration, first repeat
[14] = 1 uM (compounds provided at 10 mM), column 12, read-out: Pb-Luc (P. berghei liver stage), % of control, lower concentration, second repeat
[15] = 3 uM (compounds provided at 10 mM), column 8, read-out: Pb-Luc (P. berghei liver stage), % of control, higher concentration, first repeat
[16] = 3 uM (compounds provided at 10 mM), column 9, read-out: Pb-Luc (P. berghei liver stage), % of control, higher concentration, second repeat
[17] = HepG2, the header list (r10) describes it as the 1 µM dose

Compound	HepG2 1uM growth rep1 [2]	HepG2 1uM growth rep2 [2]	HepG2 3uM growth rep1 [2]	HepG2 3uM growth rep2 [2]	PbLuc 1uM growth rep1 [3, 9]	PbLuc 1uM growth rep2 [3, 10]	PbLuc 3uM growth rep1 [3, 11]	PbLuc 3uM growth rep2 [3, 12]	also measured
CN(C)Cc1c(O)ccc2oc(Cc3ccccc3)cc12 [MLS000039159-01]	108%	93%	87%	92%	–	–	–	–	AC50 [1]: 422 nM; activity at 1 µM [3, 5]: 98%; activity at 1 µM [3, 6]: 102%; activity at 3 µM [3, 7]: 63%; activity at 3 µM [3, 8]: 108%
Cc1ccc(Nc2cc(C)nc(NCc3ccccc3)n2)cc1 [MLS000574704-01]	83%	84%	81%	80%	–	–	–	–	activity at 1 µM [3, 5]: 61%; activity at 1 µM [3, 6]: 54%; activity at 3 µM [3, 7]: 31%; activity at 3 µM [3, 8]: 43%
Cc1ccc(NC2=C/C(=N/S(=O)(=O)c3cccs3)c3ccccc3C2=O)cc1C [MLS000585841-01]	102%	96%	77%	86%	82%	86%	57%	72%	–
Cc1ccc(Nc2cc(C)c3ccc(O)cc3n2)cc1C.Cl [MLS000674791-01]	98%	92%	89%	95%	115%	107%	69%	101%	–
Oc1ccccc1Nc1nc(NCc2ccccc2)c2ccccc2n1 [MLS000693415-01]	89%	90%	92%	90%	–	–	–	–	activity at 1 µM [3, 5]: 72%; activity at 1 µM [3, 6]: 80%; activity at 3 µM [3, 7]: 65%; activity at 3 µM [3, 8]: 75%
Cc1ccc(-c2cc(C(=O)Nc3ccc(S(=O)(=O)N4CC(C)OC(C)C4)cc3)[nH]n2)c(O)c1 (centres unmarked) [MLS000779230-01]	106%	100%	84%	94%	151%	112%	73%	94%	–
CC(=O)OC[C@]12CCC(C)=C[C@H]1O[C@@H]1[C@H](O)[C@@H](OC(C)=O)[C@@]2(C)[C@]12CO2 [MLS000863617-01]	–	–	–	–	–	–	–	–	HepG2 viability, % of control, column 14 [2]: 5.74%; HepG2 viability, % of control, column 15 [2]: 8.75%; HepG2 viability, % of control, column 16 [2]: 5.74%; HepG2 viability, % of control, column 17 [2]: 8.75%; Pb-Luc (P. berghei liver stage luciferase signal), % of control, repeat 1 [3]: 4.68% and -0.33%; Pb-Luc (P. berghei liver stage luciferase signal), % of control, repeat 2 [3]: 4.34% and -1.04%; Pb-Luc (P. berghei liver stage luciferase signal), % of control, repeat 3 [3]: -2.60% and 1.77%
Br.N=c1n(CCN2CCCCC2)c2ccccc2n1CC(=O)c1ccc(Cl)c(Cl)c1 [MLS001042209-01]	87%	90%	85%	90%	90%	95%	75%	102%	–
CC(C)N(Cc1ccccc1)C(=O)CN1C(=O)COc2ccc(S(=O)(=O)N3CCCCCC3)cc21 [MLS001124552-01]	91%	91%	88%	90%	121%	115%	113%	144%	–
CCSc1nc2sc3c(c2c(=O)n1-c1ccccc1)CCN(C(C)C)C3 [MLS001173590-01]	104%	95%	87%	98%	97%	84%	60%	65%	–
C=C(C)CSc1nc2sc3c(c2c(=O)n1-c1ccc(C)cc1)CCN(C)C3 [MLS001173676-01]	102%	92%	84%	90%	91%	84%	44%	74%	–
CC(C)(C)OC(=O)N1CCC(CC2CC(c3ccccc3)=NO2)(C(=O)NCc2ccccc2)CC1 (centres unmarked) [MLS002174287-01]	–	–	–	–	–	–	–	–	AC50 [1]: 2660 nM; activity at 1 µM [3, 13]: 140%; activity at 1 µM [3, 14]: 108%; activity at 3 µM [3, 15]: 65%; activity at 3 µM [3, 16]: 115%; viability at 48 h, 1 µM [4]: 111%; viability at 48 h, 3 µM [4]: 95%
COc1ccc(NC(=O)CN(C)C(=O)c2oc3c(ccc4ccccc43)c2C)cc1 [MLS002182882-01]	–	–	–	–	–	–	–	–	AC50 [1]: 531 nM; activity at 1 µM [3, 13]: 160%; activity at 1 µM [3, 14]: 170%; activity at 3 µM [3, 15]: 88%; activity at 3 µM [3, 16]: 114%; viability at 48 h, 1 µM [4]: 110%; viability at 48 h, 3 µM [4]: 104%
O=C1N(c2ccccc2C(F)(F)F)OC1(Cc1ccccc1)c1ccccc1 (centres unmarked) [MLS002206595-01]	104%	93%	82%	88%	103%	105%	93%	118%	–
COc1ccccc1[C@@]1(C)ON(c2ccccc2C(F)(F)F)C1=O [MLS002206613-01]	103%	96%	83%	94%	129%	87%	95%	109%	–
COc1cc(C#Cc2c(-c3cncn3C)n(C)c3ccc(-c4ccc5[nH]ccc5c4)cc23)cc(OC)c1 [MLS002391601-01]	–	–	–	–	–	–	–	–	AC50 [1]: 2370 nM; activity at 1 µM [3, 13]: 112%; activity at 1 µM [3, 14]: 94%; activity at 3 µM [3, 15]: 111%; activity at 3 µM [3, 16]: 101%; viability at 48 h, 1 µM [4]: 105%; viability at 48 h, 3 µM [4]: 102%
O=C(CCCCCCC(=O)Nc1ccccc1)NO [NCGC00168085-22]	–	–	–	–	–	–	–	–	HepG2 viability signal, 1 uM, repeat 1 [2]: 84.33%; HepG2 viability signal, 1 uM, repeat 2 [2]: 78.31%; HepG2 viability signal, 3 uM, repeat 1 [2]: 48.31%; HepG2 viability signal, 3 uM, repeat 2 [2]: 48.65%; Pb-Luc signal, 1 uM, repeat 1 ([3]; nominal 1 uM (10 mM stock), […] for 15 mM, 1.2 uM for 12 mM, 2 uM for 20 mM stock, average of 2 wells, 1536-well plate, repeat 1): 18.69%; Pb-Luc signal, 1 uM, repeat 2 ([3]; nominal 1 uM (10 mM stock), […] for 15 mM, 1.2 uM for 12 mM, 2 uM for 20 mM stock, average of 2 wells, 1536-well plate, repeat 2): 22.42%; Pb-Luc signal, 1 uM, repeat 3 ([3]; nominal 1 uM (10 mM stock), […] for 15 mM, 1.2 uM for 12 mM, 2 uM for 20 mM stock, average of 2 wells, 1536-well plate, repeat 3): 16.08%; Pb-Luc signal, 3 uM, repeat 1 ([3]; nominal 3 uM (10 mM stock), 4.5 uM for 15 mM, 3.6 uM for 12 mM, 6 uM for 20 mM stock, average of 2 wells, 1536-well plate, repeat 1): 2.01%; Pb-Luc signal, 3 uM, repeat 2 ([3]; nominal 3 uM (10 mM stock), 4.5 uM for 15 mM, 3.6 uM for 12 mM, 6 uM for 20 mM stock, average of 2 wells, 1536-well plate, repeat 2): 4.89%; Pb-Luc signal, 3 uM, repeat 3 ([3]; nominal 3 uM (10 mM stock), 4.5 uM for 15 mM, 3.6 uM for 12 mM, 6 uM for 20 mM stock, average of 2 wells, 1536-well plate, repeat 3): 2.03%
COc1cc(OC)c(OC)cc1CN1CCc2nc(N(C)C)[nH]c(=O)c2CC1 [NCGC00440589]	–	–	–	–	–	–	–	–	Average HepG2 3 µM response( %) ([2]; HepG2, 3 µM dose): 100%; Average HepG2 3 µM response( %) [2, 17]: 102%; Average P. berghei 3 µM response( %) ([3]; P. berghei liver stage): 112%; Average P. berghei 1 µM response (%) ([3]; P. berghei liver stage): 99%
Cc1cc(C)n(Cc2ccc(C(=O)N3CCC(c4noc(-c5cccnc5)n4)C3)o2)n1 (centres unmarked) [NCGC00441856]	–	–	–	–	–	–	–	–	Average HepG2 3 µM response( %) ([2]; HepG2, 3 µM dose): 104%; Average HepG2 3 µM response( %) [2, 17]: 103%; Average P. berghei 3 µM response( %) ([3]; P. berghei liver stage): 100%; Average P. berghei 1 µM response (%) ([3]; P. berghei liver stage): 107%

From article PMC7822874, “Chemoprotective antimalarials identified through quantitative high-throughput screening of Plasmodium blood and liver stage parasites” (Scientific Reports, 2021)
